Experimental data: US20120010075A1 (priority 2009, published 2012)
Counter-ions that a name gives are not always drawn. Like-named read-outs stand apart in the source and are kept apart here.

Columns and labels:
[1] = system: Phytophthora infestans; assay type: in vivo, Phytophthora infestans on tomato; settings: applied 24 h before inoculation, assessed 7 days after inoculation
[2] = system: Leptosphaeria nodorum (LEPTNO); test: In vitro fungitoxicity of hydrazones with and without copper towards Leptosphaeria nodorum (Example 26); assay type: cell-based; settings: 72 h at 25° C.; for inhibition of growth at 0.05 µg/mL: Parastagonospora nodorum, 72 h, copper-minus medium, read-out: LEPTNO % Inhn. Minus Copper Observed
[3] = hydrazone 50 ppm with 50 μM CuCl2.2H2O, tomato late blight
[4] = compound 0.05 μg/mL, copper-plus medium (CuCl2.2H2O)
[5] = hydrazone 50 ppm + 50 μM CuCl2.2H2O, tomato
[6] = test compound Concn. 0.05 μg/mL
[7] = copper-plus medium (CuCl2 10 μM), test compound Concn. 0.05 μg/mL

## Cc1ccc(C(=O)N/N=C/c2ccc(Cl)cc2O)c(O)c1 [Example 397]
other
  melting point: 283 to 287 °C
[1]; [3]
  TLB % Control: 6.7%

## O=C(N/N=C/c1cc(Br)ccc1O)c1ccc2c(c1)OCO2 [Example 7]
[2]; compound 0.05 μg/mL
  inhibition of growth at 0.05 µg/mL: 2.6%
[2]; [4]
  LEPTNO % Inhn. Plus Copper Observed: 97.2%
[1]; [5]
  TLB % Control: 54.6%

## COc1cc(Br)cc(/C=N/NC(=O)c2ccc(Cl)cc2)c1O [Example 205]
[2]; compound 0.05 μg/mL
  inhibition of growth at 0.05 µg/mL: 15.4%
[2]; [4]
  LEPTNO % Inhn. Plus Copper Observed: 97.2%
[1]; [5]
  TLB % Control: 78.9%

## CCOc1ccc(C(=O)N/N=C/c2cc(Br)cc(Br)c2O)cc1 [Example 104]
[2]; compound 0.05 μg/mL
  inhibition of growth at 0.05 µg/mL: 27.7%
[2]; [4]
  LEPTNO % Inhn. Plus Copper Observed: 98.2%
[1]; [5]
  TLB % Control: 70.2%

## O=C(N/N=C/c1cc(Cl)cc(Cl)c1O)c1cccc(F)c1 [Example 89]
[2]; compound 0.05 μg/mL
  inhibition of growth at 0.05 µg/mL: 17.5%
[2]; [4]
  LEPTNO % Inhn. Plus Copper Observed: 95.9%
[1]; [5]
  TLB % Control: 85.8%

## COc1cccc(C(=O)N/N=C/c2cc(Cl)ccc2O)c1 [Example 188]
[2]; compound 0.05 μg/mL
  inhibition of growth at 0.05 µg/mL: 7.9%
[2]; [4]
  LEPTNO % Inhn. Plus Copper Observed: 96.5%
[1]; [5]
  TLB % Control: 74.6%

## Cc1ccc(C)c(C(=O)N/N=C/c2cc(Cl)cc(Cl)c2O)c1 [Example 23]
other
  melting point: 169 to 172 °C
[1]; [5]
  TLB % Control: 53.3%

## C/C(=N\NC(=O)c1ccccc1[N+](=O)[O-])c1ccccc1O [Example 127]
[2]; compound 0.05 μg/mL
  inhibition of growth at 0.05 µg/mL: 0%
[2]; [4]
  LEPTNO % Inhn. Plus Copper Observed: 97.1%
[1]; [5]
  TLB % Control: 40.0%

## O=C(N/N=C/c1cc(Cl)ccc1O)c1cccc(Br)c1 [Example 181]
[2]; compound 0.05 μg/mL
  inhibition of growth at 0.05 µg/mL: 16%
[2]; [4]
  LEPTNO % Inhn. Plus Copper Observed: 97.6%
[1]; [5]
  TLB % Control: 90.5%

## COc1cccc(C(=O)N/N=C(\C)c2ccccc2O)c1 [Example 53]
[2]; compound 0.05 μg/mL
  inhibition of growth at 0.05 µg/mL: 0%
[2]; [4]
  LEPTNO % Inhn. Plus Copper Observed: 96.8%
[1]; [5]
  TLB % Control: 62.0%

## C/C(=N\NC(=O)c1cccc(Br)c1)c1ccccc1O [Example 63]
[2]; compound 0.05 μg/mL
  inhibition of growth at 0.05 µg/mL: 0%
[2]; [4]
  LEPTNO % Inhn. Plus Copper Observed: 96.7%
[1]; [5]
  TLB % Control: 40.4%

## O=C(N/N=C/c1cc(Cl)cc([N+](=O)[O-])c1O)c1ccccc1 [Example 150]
[2]; compound 0.05 μg/mL
  inhibition of growth at 0.05 µg/mL: 10%
[2]; [4]
  LEPTNO % Inhn. Plus Copper Observed: 97.5%
[1]; [5]
  TLB % Control: 87.5%

## COc1cc(O)c(/C(C)=N/NC(=O)c2ccccc2)c(OC)c1 [Example 526]
[2]; [6]
  inhibition of growth at 0.05 µg/mL: 1.8%
[2]; [7]
  LEPTNO % Inhn. Plus Copper Observed: 16.2%
[1]; [3]
  TLB % Control: 41.0%

## O=C(N/N=C/c1cc(Cl)cc(Cl)c1O)c1ccccc1Cl [Example 93]
[2]; compound 0.05 μg/mL
  inhibition of growth at 0.05 µg/mL: 6%
[2]; [4]
  LEPTNO % Inhn. Plus Copper Observed: 95.2%
[1]; [5]
  TLB % Control: 77.2%

## C/C(=N\NC(=O)c1ccccc1Cl)c1ccccc1O [Example 212]
[2]; compound 0.05 μg/mL
  inhibition of growth at 0.05 µg/mL: 0%
[2]; [4]
  LEPTNO % Inhn. Plus Copper Observed: 95.2%
[1]; [5]
  TLB % Control: 14.0%

## C/C(=N\NC(=O)c1ccc2ccccc2c1O)c1cc(Cl)cc(Cl)c1O [Example 480]
[2]; [6]
  inhibition of growth at 0.05 µg/mL: 9.5%
[2]; [7]
  LEPTNO % Inhn. Plus Copper Observed: 95.3%
[1]; [3]
  TLB % Control: 4.7%

## O=C(N/N=C/c1cc(I)cc(I)c1O)c1ccc(Cl)cc1 [Example 198]
[2]; compound 0.05 μg/mL
  inhibition of growth at 0.05 µg/mL: 11.8%
[2]; [4]
  LEPTNO % Inhn. Plus Copper Observed: 97.7%
[1]; [5]
  TLB % Control: 75.4%

## COc1ccc(/C=N/NC(=O)c2ccc(Cl)cc2)c(O)c1 [Example 200]
[2]; compound 0.05 μg/mL
  inhibition of growth at 0.05 µg/mL: 0%
[2]; [4]
  LEPTNO % Inhn. Plus Copper Observed: 95.0%
[1]; [5]
  TLB % Control: 78.9%

## O=C(N/N=C/c1c(O)ccc2ccccc12)c1ccccc1 [Example 4]
[2]; compound 0.05 μg/mL
  inhibition of growth at 0.05 µg/mL: 4.4%
[2]; [4]
  LEPTNO % Inhn. Plus Copper Observed: 94.5%
[1]; [5]
  TLB % Control: 67.8%

## O=C(N/N=C/c1cc(Br)cc(Br)c1O)c1ccccc1Cl [Example 112]
[2]; compound 0.05 μg/mL
  inhibition of growth at 0.05 µg/mL: 8.1%
[2]; [4]
  LEPTNO % Inhn. Plus Copper Observed: 97.8%
[1]; [5]
  TLB % Control: 78.2%

## C/C(=N\NC(=O)c1ccc(Cl)cc1Cl)c1ccccc1O [Example 216]
[2]; compound 0.05 μg/mL
  inhibition of growth at 0.05 µg/mL: 6.3%
[2]; [4]
  LEPTNO % Inhn. Plus Copper Observed: 98.4%
[1]; [5]
  TLB % Control: 57.9%

## COc1cccc(C(=O)N/N=C/c2cc(Br)ccc2O)c1 [Example 185]
[2]; compound 0.05 μg/mL
  inhibition of growth at 0.05 µg/mL: 0%
[2]; [4]
  LEPTNO % Inhn. Plus Copper Observed: 95.2%
[1]; [5]
  TLB % Control: 54.6%

## O=C(N/N=C/c1cc(Cl)cc(Cl)c1O)c1ccc(Br)cc1 [Example 80]
[2]; compound 0.05 μg/mL
  inhibition of growth at 0.05 µg/mL: 0%
[2]; [4]
  LEPTNO % Inhn. Plus Copper Observed: 98.4%
[1]; [5]
  TLB % Control: 91.5%

## COc1cccc(C(=O)N/N=C/c2cc(Cl)cc(Cl)c2O)c1 [Example 82]
[2]; compound 0.05 μg/mL
  inhibition of growth at 0.05 µg/mL: 8.4%
[2]; [4]
  LEPTNO % Inhn. Plus Copper Observed: 97.4%
[1]; [5]
  TLB % Control: 60.6%

## O=C(N/N=C/c1cc(Cl)cc(Cl)c1O)c1ccccc1Oc1ccccc1 [Example 90]
[2]; compound 0.05 μg/mL
  inhibition of growth at 0.05 µg/mL: 9.5%
[2]; [4]
  LEPTNO % Inhn. Plus Copper Observed: 96.4%
[1]; [5]
  TLB % Control: 54.6%

## O=C(N/N=C/c1ccccc1O)c1ccc(Br)cc1 [Example 173]
[2]; compound 0.05 μg/mL
  inhibition of growth at 0.05 µg/mL: 8.3%
[2]; [4]
  LEPTNO % Inhn. Plus Copper Observed: 97.7%
[1]; [5]
  TLB % Control: 12.2%

## C/C(=N\NC(=O)c1ccccc1O)c1cc(C(F)(F)F)ccc1O (as salt: Na) [Example 538]
other
  melting point: 277 to 297 °C

## O=C(N/N=C/c1cc(Cl)cc(Br)c1O)c1ccccc1Cl [Example 161]
[2]; compound 0.05 μg/mL
  inhibition of growth at 0.05 µg/mL: 7%
[2]; [4]
  LEPTNO % Inhn. Plus Copper Observed: 97.7%
[1]; [5]
  TLB % Control: 58.2%

## COc1ccc(C(=O)N/N=C/c2cc(Cl)cc(Cl)c2O)cc1 [Example 75]
[2]; compound 0.05 μg/mL
  inhibition of growth at 0.05 µg/mL: 0%
[2]; [4]
  LEPTNO % Inhn. Plus Copper Observed: 98.4%
[1]; [5]
  TLB % Control: 15.8%

## Cc1ccc(C(=O)N/N=C/c2cc(Br)ccc2O)cc1 [Example 179]
[2]; compound 0.05 μg/mL
  inhibition of growth at 0.05 µg/mL: 18.7%
[2]; [4]
  LEPTNO % Inhn. Plus Copper Observed: 98.0%
[1]; [5]
  TLB % Control: 35.1%

## C/C(=N\NC(=O)c1ccccc1)c1cc(Cl)ccc1O [Example 504]
[2]; [6]
  inhibition of growth at 0.05 µg/mL: 1.3%
[2]; [7]
  LEPTNO % Inhn. Plus Copper Observed: 97.6%
[1]; [3]
  TLB % Control: 94.0%

## CC(C)(C)c1ccc(C(=O)N/N=C/c2cc(Cl)cc(Cl)c2O)cc1 [Example 87]
[2]; compound 0.05 μg/mL
  inhibition of growth at 0.05 µg/mL: 8.1%
[2]; [4]
  LEPTNO % Inhn. Plus Copper Observed: 98.6%
[1]; [5]
  TLB % Control: 69.5%

## C/C(=N\NC(=O)c1ccc([N+](=O)[O-])cc1)c1ccccc1O [Example 215]
[2]; compound 0.05 μg/mL
  inhibition of growth at 0.05 µg/mL: 0.5%
[2]; [4]
  LEPTNO % Inhn. Plus Copper Observed: 98.6%
[1]; [5]
  TLB % Control: 37.0%

## O=C(N/N=C/c1cc([N+](=O)[O-])cc(Br)c1O)c1ccccc1 [Example 153]
[2]; compound 0.05 μg/mL
  inhibition of growth at 0.05 µg/mL: 0%
[2]; [4]
  LEPTNO % Inhn. Plus Copper Observed: 97.0%
[1]; [5]
  TLB % Control: 34.6%

## C/C(=N\NC(=O)c1ccc(C(C)C)cc1)c1ccccc1O [Example 40]
[2]; compound 0.05 μg/mL
  inhibition of growth at 0.05 µg/mL: 0%
[2]; [4]
  LEPTNO % Inhn. Plus Copper Observed: 94.8%
[1]; [5]
  TLB % Control: 64.9%

## C/C(=N\NC(=O)c1ccc(C(C)(C)C)cc1)c1ccccc1O [Example 55]
[2]; compound 0.05 μg/mL
  inhibition of growth at 0.05 µg/mL: 0%
[2]; [4]
  LEPTNO % Inhn. Plus Copper Observed: 95.5%
[1]; [5]
  TLB % Control: 43.9%

## Cc1ccccc1C(=O)N/N=C/c1cc(Br)ccc1O [Example 158]
[2]; compound 0.05 μg/mL
  inhibition of growth at 0.05 µg/mL: 6.2%
[2]; [4]
  LEPTNO % Inhn. Plus Copper Observed: 96.9%
[1]; [5]
  TLB % Control: 84.7%

## O=C(N/N=C/c1cc(Br)ccc1O)c1cccc(Cl)c1 [Example 176]
[2]; compound 0.05 μg/mL
  inhibition of growth at 0.05 µg/mL: 8.8%
[2]; [4]
  LEPTNO % Inhn. Plus Copper Observed: 98.2%
[1]; [5]
  TLB % Control: 61.4%

## C/C(=N\NC(=O)c1ccc(Cl)cc1)c1ccccc1O [Example 54]
[2]; compound 0.05 μg/mL
  inhibition of growth at 0.05 µg/mL: 0%
[2]; [4]
  LEPTNO % Inhn. Plus Copper Observed: 95.7%
[1]; [5]
  TLB % Control: 17.0%

## COc1ccc(C(=O)N/N=C(\C)c2ccccc2O)cc1 [Example 214]
[2]; compound 0.05 μg/mL
  inhibition of growth at 0.05 µg/mL: 7%
[2]; [4]
  LEPTNO % Inhn. Plus Copper Observed: 98.0%
[1]; [5]
  TLB % Control: 60.0%

## Cc1cccc(C(=O)N/N=C/c2cc(Cl)cc(Cl)c2O)c1 [Example 95]
[2]; compound 0.05 μg/mL
  inhibition of growth at 0.05 µg/mL: 14.1%
[2]; [4]
  LEPTNO % Inhn. Plus Copper Observed: 94.0%
[1]; [5]
  TLB % Control: 81.2%

## O=C(N/N=C/c1ccc(Cl)cc1O)c1cccc(Cl)c1 [Example 391]
[2]; [6]
  inhibition of growth at 0.05 µg/mL: 6%
[2]; [7]
  LEPTNO % Inhn. Plus Copper Observed: 96.9%
[1]; [3]
  TLB % Control: 92.0%
